Results published in US20240270731A1, “[…]” (ALEBUND PHARMACEUTICALS (HONG KONG) LIMITED, priority 2021, published 2024).

Legend:
[1] = tested on: db/db type 2 diabetes model; test: Pharmacodynamics study on the db/db type 2 diabetes model
Excerpt: 45 db/db mice were evenly divided into 5 groups before the initiation of treatment based on the body weights, serum triglyceride (TG) levels, and random blood glucose levels.
All animals were weighed daily before each dosing and treated daily for 14 consecutive days.
All the data was imported into an Excel file and presented as Mean±SEM. Graphpad Prism 7.0 software was used for data statistical analysis by One-way or Two-way ANOVA, with P<0.05 as the criterion of significant differences.

[2] = tested on: rat model of hyperlipidemia induced by high cholesterol diet; test: Rat model of hyperlipidemia induced by high cholesterol diet (serum TG, NEFA); type: in vivo, Sprague-Dawley rats
Excerpt: On the day before the start of the administration (Day 0), the animals were divided into 7 groups based on body weights and serum indicators and were continually fed with the high-cholesterol diet. The treatment groups were orally dosed with either compound or vehicle while continuing the high-cholesterol diet for a total of 1 week. The animals were weighed daily before the treatment, and the compounds were given at 9:00-9:30 in the morning based on the body weight of the day.

[3] = tested on: rat model of unilateral ureteral obstruction; test: Renal injury in rat model of unilateral ureteral obstruction; settings: 0.2 mg/kg oral daily, 14 treatment days
Protocol: Housing temperature was maintained at 20-26° C. and humidity at 40%-60%. Rats were fed with a standard chow and allowed to access food and water ad libitum.
The formulation was prepared twice a week.
Vehicle or compounds were administrated by orally gavage daily. Unilateral ureteral obstruction was performed on the second day of compound treatment. Animals in model group, reference group and compound group underwent urethral ligation under isoflurane anesthesia one hour after receiving compound administration. A flank incision was cut to expose the left ureter, and a 4-0 surgical suture was used to perform two-point ligation to achieve urethral obstruction. Ureter was cut between the two ligation points. Animals in the control group were subjected to the same surgical treatment except the ligation and cut.
Rats were sacrificed after 14 days' compound treatment. The obstructed kidney was weighed and collected for histology. The tissue samples were fixed with formalin, and then paraffin embedded. The embedded tissue was sectioned and stained with hematoxylin & eosin and Masson trichrome to assess kidney structure and fibrosis.
The multiple comparison was analyzed with the Kruskal-Wallis non-parameter test. The Dunn's test was used to compare the difference to the model group.

[4] = tested on: uninephrectomied db/db mice; test: Diabetic nephropathy pharmacodynamic model (uninephrectomied db/db mice)
Protocol: Housing temperature was maintained at 22-26° C. and humidity at 40%-60%. Mice were allowed to access food and water ad libitum. […] Buprenorphine was applied after surgery.
Two weeks after surgery, db/db mice were randomly assigned into 5 groups. Wild type mice were used for the control animals. […] Compounds were orally administrated once per day for 10 weeks.
At the 5th and 9th week after compound administration, mice were placed in metabolic cages for urine collection. Albumin level was measured for 24 hr albumin excretion calculation. At the 10th week after treatment, the animals were sacrificed for kidney dissection. The kidney was fixed in 10% neutral buffed formalin, then paraffin-embedded for histopathological analysis. Glomerulosclerosis was assessed by evaluating glomerular basement membrane, mesangial expansion, nodular sclerosis and glomerulosclerosis.
Graphpad 8.0 software was used for statistical analysis. The difference between the values were analyzed with one-way ANOVA. The difference between histopathological score was analyzed with Kruskal-Wallis nonparameter test.

In the case of `CO[C@@H](Cc1ccc(OCCc2nc(-c3ccccc3)oc2C)c2ccsc12)C(=O)O` (single isomer, unassigned) [Compound 2], the “OGTT blood glucose compared with the vehicle group” value ([1]; 0.05 mg/kg, all time points) is reported as “did not reach statistical significance”, the “Serum TG levels compared with the vehicle group” value ([1]; Day 6 and Day 12, Aleglitazar 0.2 mg/kg, Compound 2 at different dosages) is reported as “significantly lower” and the “Effect on lowering blood glucose compared with Aleglitazar” value ([1]; random blood glucose, Day 7 and Day 14) is reported as “slightly weaker effect”. For the same compound, the “OGTT AUC0-120min compared with Aleglitazar” value ([1]; same dose level (0.2 mg/kg)) was “higher”, the “Serum NEFA compared with Aleglitazar” value ([2]; 0.2 mg/kg, T-test, P<0.05) was “significantly reduce” and the “Serum TG compared with Aleglitazar” value ([2]; 0.2 mg/kg, T-test, P<0.05) was “significantly reduce”. For the same compound, the “Serum TG and NEFA levels compared with the vehicle group” value ([2]; Day 8, both 0.2 mg/kg and 0.6 mg/kg) was “significantly reduce”, the “Total score of renal focal lesions (infract, tubular dilation, tubular obstruction, fibrosis, necrosis) compared with model group” value [3] was “significantly improved” and the “24-hour urinary albumin compared with vehicle” value ([4]; 5th and 9th weeks after compound administration, 0.1, 0.3, 1 mg/kg oral once per day) was “significantly decreased”. For the same compound, the “Renal tubular injury (histopathology)” value ([4]; all dosage levels (0.1, 0.3, 1 mg/kg), 10 weeks) was “improved the tubular injury at some extend” and the “Glomerulosclerosis histopathological score and glomerular volume” value ([4]; high dose (1 mg/kg), 10 weeks) was “statistically significantly reduced”.
